Values quoted from earlier work in US12357614B2, “L-ergothioneine-containing composition” (NAGASE & CO., LTD., priority 2020, dated 2025).

Legend:
Escherichia coli = conditions: EGT at 5 mM and 50 mM
OT-II CD4^+ T cells = conditions: 30 mM EGT, co-culture with F4/80 macrophages
[1] = test system: mouse bone marrow-derived macrophages; conditions: 10 mM EGT, toll-like receptor ligand stimulation

For `C[N+](C)(C)[C@@H](Cc1c[nH]c(=S)[nH]1)C(=O)[O-]` [EGT, N,N,N-trimethyl-L-2-thiohistidine], the “growth of Escherichia coli” value (Escherichia coli) is listed as “suppresses the growth of Escherichia coli”, the “Th17 polarization of OT-II CD4^+ T cells” value (OT-II CD4^+ T cells) is listed as “promoted” and the “production of cytokines (IL-6, IL-12p40, IL-1β, IL-10)” value [1] is listed as “promoted”.
